According to the NIST ThermoML archive (doi:10.1021/je5000132):
± gives the expanded uncertainty stated by the source.

Legend:
[1] = for speed of sound: 100 kPa, Pulse-echo method; for speed of sound / viscosity / mass density: Liquid; for viscosity / mass density: 101 kPa; for viscosity: Concentric cylinders viscometry; for mass density: Vibrating tube method; for surface tension liquid-gas: 294.7 K, Drop volume
[2] = xn = mol fraction of the nth substance listed; settings: x2 = 0; for speed of sound: 100 kPa, Pulse-echo method; for speed of sound / viscosity / mass density: Liquid; for viscosity / mass density: 101 kPa; for viscosity: Concentric cylinders viscometry; for mass density: Vibrating tube method; for surface tension liquid-gas: 294.7 K, Drop volume

## CCCCCCCCCCCC [dodecane]
[1]; 293.15 K
  speed of sound: 1297.6 ± 1.3 m/s
  viscosity: 1.49 ± 0.019 mPa·s
  mass density: 748.893 ± 0.46 kg/m3
[1]
  surface tension liquid-gas: 25.3 ± 0.3 mN/m
[1]; 303.15 K
  speed of sound: 1259.3 ± 1.3 m/s
  viscosity: 1.25 ± 0.019 mPa·s
  mass density: 741.635 ± 0.46 kg/m3
[1]; 313.15 K
  speed of sound: 1221.4 ± 1.3 m/s
  viscosity: 1.06 ± 0.018 mPa·s
  mass density: 734.349 ± 0.46 kg/m3
[1]; 323.15 K
  speed of sound: 1184.2 ± 1.3 m/s
  viscosity: 0.916 ± 0.018 mPa·s
  mass density: 727.038 ± 0.46 kg/m3
[1]; 333.15 K
  speed of sound: 1147.5 ± 1.3 m/s
  viscosity: 0.799 ± 0.017 mPa·s
  mass density: 719.691 ± 0.46 kg/m3
[1]; 343.15 K
  viscosity: 0.704 ± 0.017 mPa·s
  mass density: 712.2 ± 0.46 kg/m3
[1]; 353.15 K
  viscosity: 0.625 ± 0.017 mPa·s
  mass density: 704.7 ± 0.46 kg/m3
[1]; 363.15 K
  viscosity: 0.56 ± 0.017 mPa·s
  mass density: 697.1 ± 0.46 kg/m3
[1]; 373.15 K
  viscosity: 0.506 ± 0.017 mPa·s
  mass density: 689.6 ± 0.46 kg/m3

## CC(CC(C)(C)C)CC(C)(C)C [2,2,4,6,6-pentamethylheptane]
[1]; 293.15 K
  speed of sound: 1203.6 ± 2.2 m/s
[1]
  surface tension liquid-gas: 21.8 ± 0.3 mN/m
[1]; 303.15 K
  speed of sound: 1164.8 ± 2.2 m/s
[1]; 313.15 K
  speed of sound: 1126.7 ± 2.2 m/s
[1]; 323.15 K
  speed of sound: 1089.3 ± 2.2 m/s
[1]; 333.15 K
  speed of sound: 1052.5 ± 2.2 m/s

## CCCCCCCCCCCC [dodecane] + CC(CC(C)(C)C)CC(C)(C)CC(C)(C)C
[2]; 293.15 K
  speed of sound: 1297.6 ± 1.3 m/s
  viscosity: 1.49 ± 0.019 mPa·s
  mass density: 748.893 ± 1 kg/m3
[2]
  surface tension liquid-gas: 25.3 ± 0.3 mN/m
[2]; 303.15 K
  speed of sound: 1259.3 ± 1.3 m/s
  viscosity: 1.25 ± 0.019 mPa·s
  mass density: 741.635 ± 1 kg/m3
[2]; 313.15 K
  speed of sound: 1221.4 ± 1.3 m/s
  viscosity: 1.06 ± 0.018 mPa·s
  mass density: 734.349 ± 1 kg/m3
[2]; 323.15 K
  speed of sound: 1184.2 ± 1.3 m/s
  viscosity: 0.916 ± 0.018 mPa·s
  mass density: 727.038 ± 1 kg/m3
[2]; 333.15 K
  speed of sound: 1147.5 ± 1.3 m/s
  viscosity: 0.799 ± 0.017 mPa·s
  mass density: 719.691 ± 1 kg/m3
[2]; 343.15 K
  viscosity: 0.704 ± 0.017 mPa·s
  mass density: 712.2 ± 1 kg/m3
[2]; 353.15 K
  viscosity: 0.625 ± 0.017 mPa·s
  mass density: 704.7 ± 1 kg/m3
[2]; 363.15 K
  viscosity: 0.56 ± 0.017 mPa·s
  mass density: 697.1 ± 1 kg/m3
[2]; 373.15 K
  viscosity: 0.506 ± 0.017 mPa·s
  mass density: 689.6 ± 1 kg/m3

## CC(CC(C)(C)C)CC(C)(C)CC(C)(C)C (configuration not stated) [2,2,4,4,6,8,8-heptamethylnonane]
[1]; 293.15 K
  speed of sound: 1285.7 ± 2.2 m/s
  viscosity: 3.7 ± 0.043 mPa·s
  mass density: 784.457 ± 0.69 kg/m3
[1]
  surface tension liquid-gas: 24 ± 0.3 mN/m
[1]; 303.15 K
  speed of sound: 1248.5 ± 2.2 m/s
  viscosity: 2.92 ± 0.035 mPa·s
  mass density: 777.761 ± 0.68 kg/m3
[1]; 313.15 K
  speed of sound: 1211.8 ± 2.2 m/s
  viscosity: 2.37 ± 0.03 mPa·s
  mass density: 771.044 ± 0.68 kg/m3
[1]; 323.15 K
  speed of sound: 1176 ± 2.2 m/s
  viscosity: 1.95 ± 0.027 mPa·s
  mass density: 764.316 ± 0.67 kg/m3
[1]; 333.15 K
  speed of sound: 1140.8 ± 2.2 m/s
  viscosity: 1.63 ± 0.024 mPa·s
  mass density: 757.571 ± 0.67 kg/m3
[1]; 343.15 K
  viscosity: 1.39 ± 0.022 mPa·s
  mass density: 750.7 ± 0.7 kg/m3
[1]; 353.15 K
  viscosity: 1.19 ± 0.021 mPa·s
  mass density: 743.8 ± 0.7 kg/m3
[1]; 363.15 K
  viscosity: 1.04 ± 0.02 mPa·s
  mass density: 736.8 ± 0.7 kg/m3
[1]; 373.15 K
  viscosity: 0.914 ± 0.019 mPa·s
  mass density: 729.9 ± 0.7 kg/m3

## CCCCCCCCCCCC [dodecane] + CC(CC(C)(C)C)CC(C)(C)C
[2]; 293.15 K
  speed of sound: 1297.6 ± 1.3 m/s
  viscosity: 1.49 ± 0.019 mPa·s
  mass density: 748.893 ± 0.55 kg/m3
[2]
  surface tension liquid-gas: 25.3 ± 0.3 mN/m
[2]; 303.15 K
  speed of sound: 1259.3 ± 1.3 m/s
  viscosity: 1.25 ± 0.019 mPa·s
  mass density: 741.635 ± 0.55 kg/m3
[2]; 313.15 K
  speed of sound: 1221.4 ± 1.3 m/s
  viscosity: 1.06 ± 0.018 mPa·s
  mass density: 734.349 ± 0.55 kg/m3
[2]; 323.15 K
  speed of sound: 1184.2 ± 1.3 m/s
  viscosity: 0.916 ± 0.018 mPa·s
  mass density: 727.038 ± 0.55 kg/m3
[2]; 333.15 K
  speed of sound: 1147.5 ± 1.3 m/s
  viscosity: 0.799 ± 0.017 mPa·s
  mass density: 719.691 ± 0.55 kg/m3
[2]; 343.15 K
  viscosity: 0.704 ± 0.017 mPa·s
  mass density: 712.2 ± 0.55 kg/m3
[2]; 353.15 K
  viscosity: 0.625 ± 0.017 mPa·s
  mass density: 704.7 ± 0.55 kg/m3
[2]; 363.15 K
  viscosity: 0.56 ± 0.017 mPa·s
  mass density: 697.1 ± 0.55 kg/m3
[2]; 373.15 K
  viscosity: 0.506 ± 0.017 mPa·s
  mass density: 689.6 ± 0.55 kg/m3
